Consider 22 molecules from ChEMBL document CHEMBL1122993, “3-Alkyl-3-hydroxyglutaric acids: a new class of hypocholesterolemic HMG CoA reductase inhibitors. 1” (J Med Chem, 1985).

The target in data set [1] is T1, 3-hydroxy-3-methylglutaryl-coenzyme A reductase (Rattus norvegicus) (UniProt P51639).
T1 sequence (whole entry): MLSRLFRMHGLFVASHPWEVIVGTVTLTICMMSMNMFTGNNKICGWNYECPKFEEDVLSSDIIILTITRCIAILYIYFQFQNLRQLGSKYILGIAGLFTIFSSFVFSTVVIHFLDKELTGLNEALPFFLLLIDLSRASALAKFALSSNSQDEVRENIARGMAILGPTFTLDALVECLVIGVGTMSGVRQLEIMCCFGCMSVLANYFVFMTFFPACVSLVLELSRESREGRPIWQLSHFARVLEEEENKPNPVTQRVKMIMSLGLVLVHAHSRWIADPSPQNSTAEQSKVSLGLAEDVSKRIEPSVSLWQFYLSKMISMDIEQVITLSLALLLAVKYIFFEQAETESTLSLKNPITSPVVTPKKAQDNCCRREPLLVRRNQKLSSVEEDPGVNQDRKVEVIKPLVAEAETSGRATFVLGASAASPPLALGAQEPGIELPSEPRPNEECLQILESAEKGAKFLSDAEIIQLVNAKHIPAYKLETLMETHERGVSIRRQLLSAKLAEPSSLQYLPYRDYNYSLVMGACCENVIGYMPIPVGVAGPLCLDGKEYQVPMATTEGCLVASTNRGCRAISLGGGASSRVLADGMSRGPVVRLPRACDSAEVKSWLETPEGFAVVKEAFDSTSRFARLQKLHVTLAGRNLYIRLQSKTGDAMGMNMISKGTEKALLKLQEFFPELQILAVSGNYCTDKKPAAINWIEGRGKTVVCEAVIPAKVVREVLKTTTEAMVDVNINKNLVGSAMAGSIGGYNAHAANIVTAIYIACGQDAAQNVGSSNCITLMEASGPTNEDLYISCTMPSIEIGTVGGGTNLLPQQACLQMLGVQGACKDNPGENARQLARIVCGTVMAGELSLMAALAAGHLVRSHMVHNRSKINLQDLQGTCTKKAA
Put plainly: In vitro inhibition of rat liver HMG-CoA reductase at concentration of 10e-3 M.

Data set [2] relates to Rattus norvegicus. Put plainly: Percent reduction of Serum Cholesterol in Triton-treated rat at dose 200 mg/kg by intragastric administration (p<0.01). Type of data set: functional.
Data set [3] concerns Rattus norvegicus. Put plainly: Percent reduction of Serum Cholesterol in Triton-treated rat at dose 300 mg/kg by intragastric administration (p<0.01). Type of data set: functional.
In data set [4] the test system is Rattus norvegicus. The data set can be described thus: Percent reduction of Serum Cholesterol in Triton-treated rat at dose 100 mg/kg by intragastric administration (p<0.01). In kind it is functional.
Data set [5] deals with T2, 3-hydroxy-3-methylglutaryl-coenzyme A reductase (Rattus norvegicus, UniProt P51639).
T2 sequence (P51639 whole entry): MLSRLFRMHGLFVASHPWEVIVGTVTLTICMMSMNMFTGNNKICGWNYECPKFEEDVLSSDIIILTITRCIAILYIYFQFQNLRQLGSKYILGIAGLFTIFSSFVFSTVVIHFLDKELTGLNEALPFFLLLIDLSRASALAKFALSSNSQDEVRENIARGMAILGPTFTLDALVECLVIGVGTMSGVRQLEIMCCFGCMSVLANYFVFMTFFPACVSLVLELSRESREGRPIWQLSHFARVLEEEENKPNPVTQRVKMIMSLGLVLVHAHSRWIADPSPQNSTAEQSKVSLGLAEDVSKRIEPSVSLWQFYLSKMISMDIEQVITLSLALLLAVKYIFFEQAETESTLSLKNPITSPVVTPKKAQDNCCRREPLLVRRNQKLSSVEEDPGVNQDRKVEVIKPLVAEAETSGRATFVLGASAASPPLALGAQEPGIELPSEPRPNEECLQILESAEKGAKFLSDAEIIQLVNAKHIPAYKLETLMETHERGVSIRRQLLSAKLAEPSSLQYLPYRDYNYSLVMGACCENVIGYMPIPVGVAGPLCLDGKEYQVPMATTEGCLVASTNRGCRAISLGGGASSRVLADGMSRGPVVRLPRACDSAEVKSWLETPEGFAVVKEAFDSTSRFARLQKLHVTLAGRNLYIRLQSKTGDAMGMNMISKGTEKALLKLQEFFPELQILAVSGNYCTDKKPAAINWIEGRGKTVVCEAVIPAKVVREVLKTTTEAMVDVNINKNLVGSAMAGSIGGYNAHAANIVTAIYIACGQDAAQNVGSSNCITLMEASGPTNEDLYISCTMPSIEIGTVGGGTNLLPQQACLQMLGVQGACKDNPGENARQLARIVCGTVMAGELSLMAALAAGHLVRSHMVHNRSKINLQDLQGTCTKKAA
Put plainly: Inhibition of HMG-CoA reductase from rat liver.

Data set [6] deals with Rattus norvegicus. Put plainly: Percent reduction of HMGR activity in diazasterol-treated rat at dose 100 mg/kg by intragastric administration (p<0.05). In kind it is functional.
The subject of data set [7] is Rattus norvegicus. The data set can be described thus: Percent reduction of HMGR activity in diazasterol-treated rat at dose 50 mg/kg by intragastric administration (p<0.05). Type of data set: functional.
Data set [8] has as its system Rattus norvegicus. Put plainly: Percent reduction of HMGR activity in diazasterol-treated rat at dose 20 mg/kg by intragastric administration (p<0.05). Type of data set: functional.
The subject of data set [9] is Rattus norvegicus. The data set can be described thus: Percent reduction of Serum Cholesterol in Triton-treated rat at dose 50 mg/kg by intragastric administration. In kind it is functional.
Data set [10] deals with Rattus norvegicus. The data set can be described thus: Percent reduction of Serum Cholesterol in Triton-treated rat at dose 80 mg/kg by intragastric administration. Type of data set: functional.
Data set [11] has as its system Rattus norvegicus. The data set can be described thus: Percent reduction of HMGR activity in diazasterol-treated rat at dose 10 mg/kg by intragastric administration. Type of data set: functional.
Substrate in data set [12]: CCCCCCCCCCCCCCCC(O)(CC(=O)O)CC(=O)O
Description: Competitive inhibition of HMG-CoA reductase

What is called inhibition is how much of the control response was suppressed. The low end stands for a response near the control, the high end for a response far below the control. In turn, `CCC(O)(CC(=O)O)CC(=O)O` yielded an inhibition in [1] of 29%.

For `CC(O)(CC(=O)O)CC(=O)O`, the inhibition in data set [1] was found to be 0%.

On to `CCCCCCCCCCCCCCCC(O)(CC(=O)OCC)CC(=O)OCC`, for which, in the data set with Rattus norvegicus [2], the Reduction stood at 3%.

On to `CC1(O)CC(=O)NC(=O)C1`, for which, in data set [1], the inhibition stood at 50%.

`CCCCCCCCCCCCCCCC(O)(CC(=O)OC)CC(=O)OC` yielded an inhibition in [1] of 1%. Further, the Reduction with Rattus norvegicus [3] worked out at 2%; with Rattus norvegicus [4], 4%; with Rattus norvegicus [2] it was 4%.

On to `CCCCCCCCCCC(O)(CCO)CCO`, for which the inhibition in data set [1] was determined as 0%.

Molecule `CCCC(O)(CC(=O)O)CC(=O)O` had an inhibition in data set [1] of 37%.

The term IC50 denotes the midpoint of a concentration-inhibition curve. With `CCCCCCCCCCCCCCCCCCCC(O)(CC(=O)O)CC(=O)O`, in data set [1], the inhibition was 86%. Inhibition in data set [5] was half-maximal at 350 µM (IC50).

In data set [1], `CCCCCCCCCCCCCCCC(O)(CCO)CCO` displayed an inhibition of 0%.

`CCCCCCCCCCCCCCCC(O)(CC(=O)O)CC(=O)O`: the Reduction was 40% with Rattus norvegicus [6]; 22% in the data set with Rattus norvegicus [3]; 31% in the data set with Rattus norvegicus [7]; 27% in the data set on Rattus norvegicus [8]; 4% in the data set on Rattus norvegicus [4]; 17% in the data set on Rattus norvegicus [2]. The inhibition in data set [1] is 99%. In [5], this molecule yielded an IC50 of 50 µM.

On to `CC[C@H](C)C(=O)O[C@H]1CCC=C2C=C[C@H](C)[C@H](CC[C@@H]3C[C@@H](O)CC(=O)O3)[C@H]21` [MEVASTATIN], for which the Reduction in the data set with Rattus norvegicus [9] is reported as 17%; in the data set with Rattus norvegicus [10] it was 28%; in the data set on Rattus norvegicus [11], 60%.

In turn, `CCCCCCCCCCCCCCC/C(=C\C(=O)O)CC(=O)O` gave an inhibition in [1] of 0%.

Molecule `COC(=O)CC(C)(O)CC(N)=O` (stereo not given) displayed an inhibition in data set [1] of 0%.

In turn, `CCCCCCCCCCCCCCCC(O)(CC(=O)O)CC(=O)OCCN(C)C` (stereo not given) showed an inhibition in data set [1] of 0%.

The molecule `CCOC(=O)CC(C)(O)CC(=O)OCC` came in with an inhibition in data set [1] of 0%.

With `CCCCCCCCCCC(O)(CC(=O)OCC)CC(=O)OCC`, the inhibition in data set [1] came to 0%.

In [1], `CCCCCCCCCCC1(O)CCOC(=O)C1` (stereo not given) registered an inhibition of 57%.

With `CCCCCCCCCCCCCCCC1(OC(C)=O)CC(=O)OC(=O)C1`, the inhibition in data set [1] is 9%.

In the case of `CC1(O)CC(=O)OC(=O)C1`, in data set [1], the inhibition is 0%.

For `CC(C)C(O)(CC(=O)O)CC(=O)O`, the inhibition in data set [1] amounted to 10%.

The molecule `CCCCCCC(O)(CC(=O)O)CC(=O)O` returned an inhibition in [1] of 5%.

B1: 3-hydroxy-3-methylglutaryl-coenzyme A reductase (Rattus norvegicus), P51639 (protein)
chain: MLSRLFRMHGLFVASHPWEVIVGTVTLTICMMSMNMFTGNNKICGWNYECPKFEEDVLSSDIIILTITRCIAILYIYFQFQNLRQLGSKYILGIAGLFTIFSSFVFSTVVIHFLDKELTGLNEALPFFLLLIDLSRASALAKFALSSNSQDEVRENIARGMAILGPTFTLDALVECLVIGVGTMSGVRQLEIMCCFGCMSVLANYFVFMTFFPACVSLVLELSRESREGRPIWQLSHFARVLEEEENKPNPVTQRVKMIMSLGLVLVHAHSRWIADPSPQNSTAEQSKVSLGLAEDVSKRIEPSVSLWQFYLSKMISMDIEQVITLSLALLLAVKYIFFEQAETESTLSLKNPITSPVVTPKKAQDNCCRREPLLVRRNQKLSSVEEDPGVNQDRKVEVIKPLVAEAETSGRATFVLGASAASPPLALGAQEPGIELPSEPRPNEECLQILESAEKGAKFLSDAEIIQLVNAKHIPAYKLETLMETHERGVSIRRQLLSAKLAEPSSLQYLPYRDYNYSLVMGACCENVIGYMPIPVGVAGPLCLDGKEYQVPMATTEGCLVASTNRGCRAISLGGGASSRVLADGMSRGPVVRLPRACDSAEVKSWLETPEGFAVVKEAFDSTSRFARLQKLHVTLAGRNLYIRLQSKTGDAMGMNMISKGTEKALLKLQEFFPELQILAVSGNYCTDKKPAAINWIEGRGKTVVCEAVIPAKVVREVLKTTTEAMVDVNINKNLVGSAMAGSIGGYNAHAANIVTAIYIACGQDAAQNVGSSNCITLMEASGPTNEDLYISCTMPSIEIGTVGGGTNLLPQQACLQMLGVQGACKDNPGENARQLARIVCGTVMAGELSLMAALAAGHLVRSHMVHNRSKINLQDLQGTCTKKAA
For orientation: Km means the concentration of substrate that gives half-maximal velocity. Regarding B1, in data set [12], the Michaelis constant (Km) turned out to be 8 µM.
